Data reported in patent publication US20050197350A1, “Novel quinoline, tetrahydroquinazoline, and pyrimidine derivatives and methods of treatment related to the use thereof” (TAISHO PHARMACEUTICAL CO., LTD., priority 2003, published 2005).
Counter-ions that a name gives are not always drawn.

molecular target: MCH receptor (Homo sapiens, UniProt Q99705); experiment: High throughput functional screening FLIPR/FDSS6000 (intracellular Ca2+ evoked by MCH); assay type: cell-based; settings: FLIPR/FDSS, antagonist activity vs 50 nM MCH; class by percent of control at 10^−7 M or IC50; read-out: class
In short: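 For antagonist testing, compound-treated cells (30 min, 37 °C) were stimulated with 50 nM MCH and intracellular Ca2+ followed by Fluo4 fluorescence on FLIPR/FDSS6000. Receptor was a constitutively active, non-endogenous MCH receptor; dye loading 4 μM Fluo4-AM, 1 h, 37 °C.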

Row | Compound | IC50 [nM]
1 | Cc1cnc(N[C@H]2CC[C@@H](NCC(=O)c3ccc(Cl)cc3)CC2)nc1N(C)C [Example 3260, 1-(4-chlorophenyl)-2-[(cis-4-{[4-(dimethylamino)-5-methylpyrimidin-2-yl]amino}cyclohexyl)amino]ethanone] | 50 to 200
2 | Cc1cnc(N[C@H]2CC[C@@H](NCC(=O)c3ccc(F)c(F)c3)CC2)nc1N(C)C [Example 3261, 1-(3,4-difluorophenyl)-2-[(cis-4-{[4-(dimethylamino)-5-methylpyrimidin-2-yl]amino}cyclohexyl)amino]ethanone] | > 200
3 | Cc1cnc(N[C@H]2CC[C@@H](NCC(=O)c3ccc(Br)cc3)CC2)nc1N(C)C [Example 3262, 1-(4-bromophenyl)-2-[(cis-4-{[4-(dimethylamino)-5-methylpyrimidin-2-yl]amino}cyclohexyl)amino]ethanone] | > 200
4 | Cc1cc(N(C)C)nc(N[C@H]2CC[C@@H](NC(=O)NC(C)(C)c3cc(C(F)(F)F)cc(C(F)(F)F)c3)CC2)n1 [Example 3263, N-{1-[3,5-bis(trifluoromethyl)phenyl]-1-methylethyl}-N′-(cis-4-{[4-(dimethylamino)-6-methylpyrimidin-2-yl]amino}-cyclohexyl)urea] | 50 to 200
5 | Cc1cnc(N[C@H]2CC[C@@H](NC(=O)NC(C)(C)c3ccc(Cl)cc3)CC2)nc1N(C)C [Example 3264, N-[1-(4-chlorophenyl)-1-methylethyl]-N′-(cis-4-{[4-(dimethylamino)-5-methylpyrimidin-2-yl]amino}cyclohexyl)urea] | < 50

same assay, conditions: FLIPR/FDSS, antagonist activity vs 50 nM MCH; class by percent of control at 10^−7 M or IC50; table after the classification; read-out: class

Row | Compound | IC50 [nM]
6 | CN(C)c1ccnc(N[C@H]2CC[C@@H](NC(=O)c3cc(Cl)ccn3)CC2)n1 [Example 3213, 4-Chloro-pyridine-2-carboxylic acid [cis-4-(4-dimethylamino-pyrimidin-2-ylamino)-cyclohexyl]-amide hydrochloride] | > 200
7 | CN(C)c1ccnc(N[C@H]2CC[C@@H](NC(=O)c3ccc(F)cc3)CC2)n1 [Example 3214, N-[cis-4-(4-Dimethylamino-pyrimidin-2-ylamino)-cyclohexyl]-4-fluoro-benzamide hydrochloride] | 50 to 200
8 | CN(C)c1ccnc(N[C@H]2CC[C@@H](NC(=O)c3cc(F)cc(Cl)c3)CC2)n1 [Example 3215, 3-Chloro-N-cis-4-(4-dimethylamino-pyrimidin-2-ylamino)-cyclohexyl]-5-fluoro-benzamide hydrochloride] | 50 to 200
9 | CN(C)c1ccnc(N[C@H]2CC[C@@H](NC(=O)c3cc(F)c(F)c(F)c3)CC2)n1 [Example 3216, N-[cis-4-(4-Dimethylamino-pyrimidin-2-ylamino)-cyclohexyl]-3,4,5-trifluoro-benzamide hydrochloride] | < 50
10 | CN(C)c1ccnc(N[C@H]2CC[C@@H](NC(=O)c3cc(C(C)(C)C)c(O)c(C(C)(C)C)c3)CC2)n1 [Example 3217, 3,5-Di-tert-butyl-N-[cis-4-(4-dimethylamino-pyrimidin-2-ylamino)-cyclohexyl]-4-hydroxy-benzamide hydrochloride] | < 50
11 | CN(C)c1ccnc(N[C@H]2CC[C@@H](NC(=O)Nc3cccc(Cl)c3Cl)CC2)n1 [Example 3218, 1-(2,3-Dichloro-phenyl)-3-[cis-4-(4-dimethylamino-pyrimidin-2-ylamino)-cyclohexyl]-urea hydrochloride] | > 200
12 | CN(C)c1ccnc(N[C@H]2CC[C@@H](CNC(=O)c3ccc(F)c(F)c3)CC2)n1 [Example 3219, N-[cis-4-(4-Dimethylamino-pyrimidin-2-ylamino)-cyclohexylmethyl]-3,4-difluoro-benzamide hydrochloride] | 50 to 200
13 | CN(C)c1ccnc(N[C@H]2CC[C@@H](CNC(=O)Cc3c(Cl)ccc(Cl)c3Cl)CC2)n1 [Example 3220, N-[cis-4-(4-Dimethylamino-pyrimidin-2-ylamino)-cyclohexylmethyl]-2-(2,3,6-trichloro-phenyl)-acetamide hydrochloride] | < 50
14 | CN(C)c1ccnc(N[C@H]2CC[C@@H](CNC(=O)C3c4ccccc4Oc4ccccc43)CC2)n1 [Example 3221, 9H-Xanthene-9-carboxylic acid [cis-4-(4-dimethylamino-pyrimidin-2-ylamino)-cyclohexylmethyl]-amide hydrochloride] | < 50
15 | CN(C)c1ccnc(N[C@H]2CC[C@@H](CNC(=O)Nc3cccc(Cl)c3Cl)CC2)n1 [Example 3222, 1-(2,3-Dichloro-phenyl)-3-[cis-4-(4-dimethylamino-pyrimidin-2-ylamino)-cyclohexylmethyl]-urea hydrochloride] | < 50
16 | CNc1ccnc(N[C@H]2CC[C@@H](NC(=O)c3ccc(F)c(F)c3)CC2)n1 [Example 3223, 3,4-Difluoro-N-[cis-4-(4-methylamino-pyrimidin-2-ylamino)-cyclohexyl]-benzamide-hydrochloride] | > 200
17 | CNc1ccnc(N[C@H]2CC[C@@H](NC(=O)c3ccc(F)c(Cl)c3)CC2)n1 [Example 3224, 3-Chloro-4-fluoro-N-[cis-4-(4-methylamino-pyrimidin-2-ylamino)-cyclohexyl]-benzamide hydrochloride] | 50 to 200
18 | CCNc1ccnc(N[C@H]2CC[C@@H](NC(=O)c3ccc(F)c(F)c3)CC2)n1 [Example 3225, N-[cis-4-(4-Ethylamino-pyrimidin-2-ylamino)-cyclohexyl]-3,4-difluoro-benzamide hydrochloride] | > 200
19 | CCN(C)c1ccnc(N[C@H]2CC[C@@H](NC(=O)c3ccc(F)c(F)c3)CC2)n1 [Example 3226, N-{cis-4-[4-(Ethyl-methyl-amino)-pyrimidin-2-ylamino]-cyclohexyl}-3,4-difluoro-benzamide hydrochloride] | > 200
20 | CN(CCO)c1ccnc(N[C@H]2CC[C@@H](NC(=O)c3ccc(F)c(F)c3)CC2)n1 [Example 3227, 3,4-Difluoro-N-(cis-4-{4-[(2-hydroxy-ethyl)-methyl-amino]-pyrimidin-2-ylamino}-cyclohexyl)-benzamide hydrochloride] | > 200
21 | Cc1cnc(N[C@H]2CC[C@@H](NC(=O)c3ccc(F)c(Cl)c3)CC2)nc1N(C)C [Example 3228, 3-Chloro-N-[cis-4-(4-dimethylamino-5-methyl-pyrimidin-2-ylamino)-cyclohexyl]-4-fluoro-benzamide hydrochloride] | < 50
22 | CN(C)c1nc(N[C@H]2CC[C@@H](NC(=O)c3ccc(F)c(Cl)c3)CC2)ncc1F [Example 3229, 3-Chloro-N-[cis-4-(4-dimethylamino-5-fluoro-pyrimidin-2-ylamino)-cyclohexyl]-4-fluoro-benzamide hydrochloride] | < 50
23 | Cc1cc(N(C)C)nc(N[C@H]2CC[C@@H](NC(=O)c3ccc(F)c(Cl)c3)CC2)n1 [Example 3230, 3-Chloro-N-[cis-4-(4-dimethylamino-6-methyl-pyrimidin-2-ylamino)-cyclohexyl]-4-fluoro-benzamide hydrochloride] | < 50
24 | CCc1cc(N(C)C)nc(N[C@H]2CC[C@@H](NC(=O)c3ccc(F)c(F)c3)CC2)n1 [Example 3231, N-[cis-4-(4-Dimethylamino-6-ethyl-pyrimidin-2-ylamino)-cyclohexyl]-3,4-difluoro-benzamide hydrochloride] | 50 to 200
25 | CN(C)c1cc(N(C)C)nc(N[C@H]2CC[C@@H](NC(=O)c3ccc(F)c(F)c3)CC2)n1 [Example 3232, N-[cis-4-(4,6-Bis-dimethylamino-pyrimidin-2-ylamino)-cyclohexyl]-3,4-difluoro-benzamide hydrochloride] | 50 to 200
26 | CN(C)c1cc(Cl)nc(N[C@H]2CC[C@@H](NC(=O)c3cccnc3Oc3ccccc3)CC2)n1 [Example 3233, N-[cis-4-(6-Chloro-4-dimethylamino-pyrimidin-2-ylamino)-cyclohexyl]-2-phenoxy-nicotinamide hydrochloride] | > 200
27 | CN(C)c1cc(Cl)nc(N[C@H]2CC[C@@H](NC(=O)c3ccc(F)c(F)c3)CC2)n1 [Example 3234, N-[cis-4-(6-Chloro-4-dimethylamino-pyrimidin-2-ylamino)-cyclohexyl]-3,4-difluoro-benzamide hydrochloride] | > 200
28 | Nc1cc(N[C@H]2CC[C@@H](NC(=O)c3ccc(F)c(F)c3)CC2)nc2ccccc12 [Example 3235, N-[cis-4-(4-Amino-quinolin-2-ylamino)-cyclohexyl]-3,4-difluoro-benzamide hydrochloride] | < 50
29 | NC(=O)c1cc(N[C@H]2CC[C@@H](NC(=O)c3ccc(F)c(F)c3)CC2)nc2ccccc12 [Example 3236, 2-(cis-4-{[1-(3,4-Difluoro-phenyl)-methanoyl]-amino}-cyclohexylamino)-quinoline-4-carboxylic acid amide] | > 200
30 | O=C(N[C@H]1CC[C@@H](Nc2cc(C(F)(F)F)c3ccccc3n2)CC1)c1ccc(F)c(F)c1 [Example 3237, 3,4-Difluoro-N-[cis-4-(4-trifluoromethyl-quinolin-2-yl)-amino-cyclohexyl]-benzamide hydrochloride] | > 200
31 | Cc1cc(N[C@H]2CC[C@@H](NC(=O)c3ccc(F)c(F)c3)CC2)nc2ccccc12 [Example 3238, 3,4-Difluoro-N-[cis-4-(4-methyl-quinolin-2-ylamino)-cyclohexyl]-benzamide methanesulfonic acid] | < 50
32 | Cc1cc(N[C@H]2CC[C@@H](NC(=O)c3ccc(F)c(Cl)c3)CC2)nc2ccccc12 [Example 3239, 3-Chloro-4-fluoro-N-[cis-4-(4-methyl-quinolin-2-ylamino)-cyclohexyl]-benzamide methanesulfonic acid] | < 50
33 | COc1cccc(C(=O)N[C@H]2CC[C@@H](Nc3ccc4ccccc4n3)CC2)c1 [Example 3240, 3-Methoxy-N-[cis-4-(quinolin-2-ylamino)-cyclohexyl]-benzamide methanesulfonic acid] | < 50
